Experimental data: PubChem BioAssay (NCI)
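Five compound concentrations were applied to cells in 96-well plates for 48 hours; endpoints were derived by simple linear interpolation of the resulting dose-response curve. GI50 marks 50% less growth. At the TGI there is no net growth.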

Key:
Assay in all cases: NCI tumour cell line growth inhibition, 48 h
BT-549 breast = system: BT-549 breast
RXF 393 renal = system: RXF 393 renal
UACC-62 melanoma = system: UACC-62 melanoma
SK-OV-3 ovarian = system: SK-OV-3 ovarian
NCI-H522 lung = system: NCI-H522 lung
MCF7 breast = system: MCF7 breast
RPMI-8226 leukemia = system: RPMI-8226 leukemia
KM12 colon = system: KM12 colon
TK-10 renal = system: TK-10 renal
NCI-H460 lung = system: NCI-H460 lung
OVCAR-4 ovarian = system: OVCAR-4 ovarian
SF-539 CNS = system: SF-539 CNS
ACHN renal = system: ACHN renal
OVCAR-5 ovarian = system: OVCAR-5 ovarian
HOP-62 NSCLC = system: HOP-62 NSCLC
UO-31 renal = system: UO-31 renal
EKVX NSCLC = system: EKVX NSCLC
COLO 205 colon = system: COLO 205 colon
UACC-257 melanoma = system: UACC-257 melanoma
OVCAR-3 ovarian = system: OVCAR-3 ovarian
DU-145 prostate = system: DU-145 prostate
NCI-H226 lung = system: NCI-H226 lung
SN12C renal = system: SN12C renal
U251 CNS = system: U251 CNS
MALME-3M melanoma = system: MALME-3M melanoma
HOP-92 NSCLC = system: HOP-92 NSCLC
IGROV1 ovarian = system: IGROV1 ovarian
HCT-116 colon = system: HCT-116 colon
HT29 colon = system: HT29 colon
CCRF-CEM leukemia = system: CCRF-CEM leukemia
786-0 renal = system: 786-0 renal
A549 NSCLC = system: A549 NSCLC
MDA-MB-231 breast = system: MDA-MB-231 breast
HS 578T breast = system: HS 578T breast
SF-295 CNS = system: SF-295 CNS
MDA-MB-435 = system: MDA-MB-435
MOLT-4 leukemia = system: MOLT-4 leukemia
T-47D breast = system: T-47D breast
HCT-15 colon = system: HCT-15 colon
SNB-19 CNS = system: SNB-19 CNS
SR leukemia = system: SR leukemia
OVCAR-8 ovarian = system: OVCAR-8 ovarian
NCI/ADR-RES ovarian = system: NCI/ADR-RES ovarian
M14 melanoma = system: M14 melanoma
SNB-75 CNS = system: SNB-75 CNS
HCC-2998 colon = system: HCC-2998 colon
PC-3 prostate = system: PC-3 prostate
CAKI-1 renal = system: CAKI-1 renal
SK-MEL-5 melanoma = system: SK-MEL-5 melanoma
SW-620 colon = system: SW-620 colon
A498 renal = system: A498 renal
SF-268 CNS = system: SF-268 CNS
NCI-H23 lung = system: NCI-H23 lung
K-562 leukemia = system: K-562 leukemia
LOX IMVI melanoma = system: LOX IMVI melanoma
HL-60(TB) leukemia = system: HL-60(TB) leukemia
SK-MEL-2 melanoma = system: SK-MEL-2 melanoma
SK-MEL-28 melanoma = system: SK-MEL-28 melanoma

## Cc1ccc(/C(=C/C=C(/C#N)C(N)=O)Sc2ncnn2C)cc1
BT-549 breast
  GI50: 1.84 µM
  TGI: 9.57 µM
RXF 393 renal
  GI50: 6.86 µM
  TGI: 25 µM
UACC-62 melanoma
  GI50: 11 µM
  TGI: 24.6 µM
SK-OV-3 ovarian
  GI50: 23.1 µM
  TGI: > 62.3 µM
NCI-H522 lung
  GI50: 2.6 µM
  TGI: > 52.5 µM
MCF7 breast
  GI50: 3.49 µM
  TGI: > 55.3 µM
RPMI-8226 leukemia
  GI50: 2.4 µM
  TGI: > 22.9 µM
KM12 colon
  GI50: 19.9 µM
  TGI: 44.3 µM
TK-10 renal
  GI50: 14.2 µM
  TGI: 29.1 µM
NCI-H460 lung
  GI50: 4.66 µM
  TGI: 48.2 µM
OVCAR-4 ovarian
  GI50: 24.4 µM
  TGI: > 72.5 µM
SF-539 CNS
  GI50: 6.19 µM
  TGI: 20.4 µM
ACHN renal
  GI50: 2.94 µM
  TGI: 14.2 µM
OVCAR-5 ovarian
  GI50: 8.89 µM
  TGI: 23.5 µM
HOP-62 NSCLC
  GI50: 13.1 µM
  TGI: 27.7 µM
UO-31 renal
  GI50: 5.53 µM
  TGI: > 65.4 µM
EKVX NSCLC
  GI50: 1.13 µM
  TGI: 14.6 µM
COLO 205 colon
  GI50: 15.4 µM
  TGI: 35.2 µM
UACC-257 melanoma
  GI50: 17.6 µM
  TGI: 33.6 µM
OVCAR-3 ovarian
  GI50: 5.95 µM
  TGI: 18.1 µM
DU-145 prostate
  GI50: 6.61 µM
  TGI: 18.2 µM
NCI-H226 lung
  GI50: 7.5 µM
  TGI: 25.9 µM
SN12C renal
  GI50: 7.89 µM
  TGI: 23.4 µM
U251 CNS
  GI50: 3.47 µM
  TGI: 19.1 µM
MALME-3M melanoma
  GI50: 2.03 µM
  TGI: 14.7 µM
HOP-92 NSCLC
  GI50: 14.1 µM
  TGI: 30.5 µM
IGROV1 ovarian
  GI50: 18 µM
  TGI: > 55.1 µM
HCT-116 colon
  GI50: 4.57 µM
  TGI: 15.3 µM
HT29 colon
  GI50: 13.3 µM
  TGI: 48.6 µM
CCRF-CEM leukemia
  GI50: 0.941 µM
  TGI: > 70.8 µM
786-0 renal
  GI50: 4.35 µM
  TGI: 10.9 µM
A549 NSCLC
  GI50: 21.6 µM
  TGI: 54.4 µM
MDA-MB-231 breast
  GI50: 9.57 µM
  TGI: 22.9 µM
HS 578T breast
  GI50: 20.1 µM
  TGI: 50.1 µM
SF-295 CNS
  GI50: 16.4 µM
  TGI: 41.5 µM
MDA-MB-435
  GI50: 3.2 µM
  TGI: 24.7 µM
MOLT-4 leukemia
  GI50: 10.1 µM
  TGI: > 100 µM
T-47D breast
  GI50: 18.7 µM
  TGI: 40.1 µM
HCT-15 colon
  GI50: 4.96 µM
  TGI: 19.9 µM
SNB-19 CNS
  GI50: 22 µM
  TGI: 50.2 µM
SR leukemia
  GI50: 2.51 µM
  TGI: > 35.2 µM
OVCAR-8 ovarian
  GI50: 15.8 µM
  TGI: 43.8 µM
NCI/ADR-RES ovarian
  GI50: 7.25 µM
  TGI: > 69.6 µM
M14 melanoma
  GI50: 6.4 µM
  TGI: 19.9 µM
SNB-75 CNS
  GI50: 15.6 µM
  TGI: 30.8 µM
HCC-2998 colon
  GI50: 13 µM
  TGI: 26.4 µM
PC-3 prostate
  GI50: 11.4 µM
  TGI: 25.5 µM
CAKI-1 renal
  GI50: 2.73 µM
  TGI: 19.6 µM
SK-MEL-5 melanoma
  GI50: 6.6 µM
  TGI: 15.1 µM
SW-620 colon
  GI50: 3.87 µM
  TGI: 15.6 µM
A498 renal
  TGI: 3.4 µM
SF-268 CNS
  GI50: 6.84 µM
  TGI: 25.6 µM
NCI-H23 lung
  GI50: 4.16 µM
  TGI: 15.8 µM
K-562 leukemia
  GI50: 5.48 µM
  TGI: > 100 µM
LOX IMVI melanoma
  GI50: 0.227 µM
  TGI: 1.4 µM
HL-60(TB) leukemia
  GI50: 12.3 µM
  TGI: 83 µM
SK-MEL-2 melanoma
  GI50: > 37.6 µM
  TGI: > 55.7 µM
SK-MEL-28 melanoma
  GI50: 14.9 µM
  TGI: 35.7 µM
